Drawing on ChEMBL document CHEMBL1126424, “Preparation of the enantiomers of the novel CA-sensitizer EMD 53 998” (Bioorg Med Chem Lett, 1992), this text covers IC50 and EC50 for three compounds.

The IC50 is the concentration that gives 50% inhibition. Lower therefore signals higher potency. Broadly, the EC50 is the concentration giving half of the maximal effect. High values mean lower potency in that assay, low ones higher potency in that assay.

Assay [1] has as its target Phosphodiesterase 3 (Homo sapiens, UniProt Q14432+Q13370). The assay can be described thus: Inhibition of guinea pig heart Phosphodiesterase 3. It counts as protein assay, Cavia porcellus. Conditions: target entry is the homologue from another species.
For assay [2], the species on record is Cavia porcellus. The experiment in a line: Increasing force in skinned fibers at constant buffered Ca-concentration. The assay is classed as functional.

In assay [1], `COc1ccc(C(=O)N2CCCc3cc(C4=NNC(=O)SC4C)ccc32)cc1OC` (stereo in doubt; form 1) displayed a concentration for half-maximal inhibition (IC50) of 60 nM. Also, the 50% effective concentration (EC50) in assay [2] was 4800 nM.
Turning to `COc1ccc(C(=O)N2CCCc3cc(C4=NNC(=O)SC4C)ccc32)cc1OC` (stereo in doubt; form 2), in assay [1], the half-inhibitory concentration (IC50) came out at 50 nM. In assay [2], this compound came in with an EC50 of over 100000 nM.
The matching figures for `COc1ccc(C(=O)N2CCCc3cc(C4=NNC(=O)SC4C)ccc32)cc1OC` (stereo in doubt; form 3): 1940 nM and 1700 nM.
